# pIC50: −log10 of the molar value. “Also recorded” adds a separate entry of the source.
# How the values were obtained:
# [1] = test system: Feline coronavirus type II NTU156 strain; conditions: for pIC50: NTU156 at MOI 0.1 preincubated with peptide 1 h, then on fcwf-4 cells 1 h, supernatant collected 48 h postinfection and titrated, CPE at 72 h, IC50 by interpolation; for Inhibition of viral titer (%): highest concentration tested 20 μM, NTU156 MOI 0.1, fcwf-4 cells, triplicate wells
# fcwf-4 cells = experiment: MTT cytotoxicity assay; conditions: 72 h at 37°C, 6.25-200 μM, absorbance 570 nm, triplicate
# [2] = test system: Feline coronavirus type II NTU156 strain; experiment: Combination of FP5 with human IFN-α, viral titer by plaque reduction assay; assay type: cell-based; conditions: for Viral titer reduction, agent alone: supernatant collected after 48 h, triplicate
Molecule,pIC50 [1],Inhibition of viral titer (%) [1],CC50 (fcwf-4 cells),"Viral titer reduction, combination ([2]; 20 μM FP5 with 10 to 1000 IU IFN-α, or 10 μM FP5 with 1000 IU IFN-α, NTU156 MOI 0.1, fcwf-4 cells, 48 h)","Inhibitory effect of the combination (in words) ([2]; 20 μM FP5 with 10 to 1000 IU IFN-α, or 10 μM FP5 with 1000 IU IFN-α, two-way analysis of variance P < 0.05)",Inhibitory effect of the combination (in words) ([2]; 10 units of IFN-α combined with 20 μM FP5),"Viral titer reduction, agent alone ([2]; FP5 20 μM alone, NTU156 MOI 0.1, fcwf-4 cells)","Viral titer reduction, agent alone ([2]; IFN-α 1000 IU alone, preincubated with cells 24 h, NTU156 MOI 0.1, fcwf-4 cells)"
CC[C@H](C)[C@H](NC(=O)[C@H](CC(N)=O)NC(=O)[C@H](CC(=O)O)NC(=O)[C@@H](NC(=O)[C@H](CC(C)C)NC(=O)[C@@H](NC(=O)[C@H](C)NC(=O)[C@H](CC(C)C)NC(=O)[C@H](CCC(=O)O)NC(=O)[C@@H](NC(=O)[C@@H](NC(=O)[C@@H](NC(=O)[C@H](CC(N)=O)NC(=O)[C@H](Cc1c[nH]cn1)NC(=O)[C@H](CC(C)C)NC(=O)[C@H](CCCCN)NC(=O)[C@H](CCC(=O)O)NC(=O)[C@H](CO)NC(=O)[C@H](CCCNC(=N)N)NC(=O)[C@H](Cc1ccccc1)NC(=O)[C@H](CCC(=O)O)NC(=O)[C@H](CC(C)C)NC(=O)[C@H](CC(=O)O)NC(=O)[C@H](CC(=O)O)NC(=O)[C@@H](NC(=O)[C@H](CCC(=O)O)NC(=O)CNC(=O)[C@@H](NC(=O)[C@H](CC(C)C)NC(=O)[C@H](CC(N)=O)NC(=O)[C@H](CC(C)C)NC(=O)[C@H](Cc1ccc(O)cc1)NC(=O)[C@@H](NC(=O)[C@H](C)NC(=O)[C@H](CC(N)=O)NC(=O)[C@@H](N)Cc1ccccc1)[C@@H](C)O)[C@@H](C)O)[C@@H](C)CC)[C@@H](C)O)[C@@H](C)O)C(C)C)[C@@H](C)CC)[C@@H](C)CC)C(=O)O [FP3],4.85,72%,≧200 μM,,,,,
CC[C@H](C)[C@H](NC(=O)[C@H](C)NC(=O)[C@H](CC(C)C)NC(=O)[C@H](CCC(=O)O)NC(=O)[C@@H](NC(=O)[C@@H](NC(=O)[C@@H](NC(=O)[C@H](CC(N)=O)NC(=O)[C@H](Cc1c[nH]cn1)NC(=O)[C@H](CC(C)C)NC(=O)[C@H](CCCCN)NC(=O)[C@H](CCC(=O)O)NC(=O)[C@H](CO)NC(=O)[C@H](CCCNC(=N)N)NC(=O)[C@H](Cc1ccccc1)NC(=O)[C@H](CCC(=O)O)NC(=O)[C@H](CC(C)C)NC(=O)[C@H](CC(=O)O)NC(=O)[C@H](CC(=O)O)NC(=O)[C@@H](NC(=O)[C@H](CCC(=O)O)NC(=O)CNC(=O)[C@@H](NC(=O)[C@H](CC(C)C)NC(=O)[C@H](CC(N)=O)NC(=O)[C@H](CC(C)C)NC(=O)[C@H](Cc1ccc(O)cc1)NC(=O)[C@@H](NC(=O)[C@H](C)NC(=O)[C@H](CC(N)=O)NC(=O)[C@@H](N)Cc1ccccc1)[C@@H](C)O)[C@@H](C)O)[C@@H](C)CC)[C@@H](C)O)[C@@H](C)O)C(C)C)C(=O)N[C@@H](CC(C)C)C(=O)N[C@H](C(=O)N[C@@H](CC(=O)O)C(=O)N[C@@H](CC(N)=O)C(=O)N[C@H](C(=O)N[C@@H](CC(N)=O)C(=O)N[C@@H](CC(N)=O)C(=O)N[C@H](C(=O)N[C@@H](CC(C)C)C(=O)N[C@H](C(=O)N[C@@H](CC(N)=O)C(=O)N[C@@H](CC(C)C)C(=O)N[C@@H](CCC(=O)O)C(=O)N[C@@H](Cc1c[nH]c2ccccc12)C(=O)N[C@@H](CC(C)C)C(=O)N[C@@H](CC(N)=O)C(=O)N[C@@H](CCCNC(=N)N)C(=O)N[C@H](C(=O)N[C@@H](CCC(=O)O)C(=O)O)[C@@H](C)CC)C(C)C)[C@@H](C)O)[C@@H](C)CC)[C@@H](C)CC [FP5],5.88,,≧200 μM,up to 4.08 LogPFU/ml,complete inhibitory effect; also recorded: synergetic effects,complete inhibition,1.81 LogPFU/ml,
CC[C@H](C)[C@H](NC(=O)[C@H](C)NC(=O)[C@H](CC(C)C)NC(=O)[C@H](CCC(=O)O)NC(=O)[C@@H](NC(=O)[C@@H](NC(=O)[C@@H](NC(=O)[C@H](CC(N)=O)NC(=O)[C@H](Cc1c[nH]cn1)NC(=O)[C@H](CC(C)C)NC(=O)[C@H](CCCCN)NC(=O)[C@H](CCC(=O)O)NC(=O)[C@H](CO)NC(=O)[C@H](CCCNC(=N)N)NC(=O)[C@H](Cc1ccccc1)NC(=O)[C@H](CCC(=O)O)NC(=O)[C@H](CC(C)C)NC(=O)[C@H](CC(=O)O)NC(=O)[C@H](CC(=O)O)NC(=O)[C@@H](NC(=O)[C@H](CCC(=O)O)NC(=O)CNC(=O)[C@@H](NC(=O)[C@H](CC(C)C)NC(=O)[C@H](CC(N)=O)NC(=O)[C@H](CC(C)C)NC(=O)[C@H](Cc1ccc(O)cc1)NC(=O)[C@@H](NC(=O)[C@H](C)NC(=O)[C@H](CC(N)=O)NC(=O)[C@@H](N)Cc1ccccc1)[C@@H](C)O)[C@@H](C)O)[C@@H](C)CC)[C@@H](C)O)[C@@H](C)O)C(C)C)C(=O)N[C@@H](CC(C)C)C(=O)N[C@H](C(=O)N[C@@H](CC(=O)O)C(=O)N[C@@H](CC(N)=O)C(=O)N[C@H](C(=O)N[C@@H](CC(N)=O)C(=O)N[C@@H](CC(N)=O)C(=O)N[C@H](C(=O)N[C@@H](CC(C)C)C(=O)N[C@H](C(=O)N[C@@H](CC(N)=O)C(=O)N[C@@H](CC(C)C)C(=O)O)C(C)C)[C@@H](C)O)[C@@H](C)CC)[C@@H](C)CC [FP4],5.74,93%,≧200 μM,,,,,
CC[C@H](C)[C@H](NC(=O)[C@H](CCC(=O)O)NC(=O)CNC(=O)[C@@H](NC(=O)[C@H](CC(C)C)NC(=O)[C@H](CC(N)=O)NC(=O)[C@H](CC(C)C)NC(=O)[C@H](Cc1ccc(O)cc1)NC(=O)[C@@H](NC(=O)[C@H](C)NC(=O)[C@H](CC(N)=O)NC(=O)[C@@H](N)Cc1ccccc1)[C@@H](C)O)[C@@H](C)O)C(=O)N[C@@H](CC(=O)O)C(=O)N[C@@H](CC(=O)O)C(=O)N[C@@H](CC(C)C)C(=O)N[C@@H](CCC(=O)O)C(=O)N[C@@H](Cc1ccccc1)C(=O)N[C@@H](CCCNC(=N)N)C(=O)N[C@@H](CO)C(=O)N[C@@H](CCC(=O)O)C(=O)N[C@@H](CCCCN)C(=O)N[C@@H](CC(C)C)C(=O)O [FP1],,27%,≧200 μM,,,,,
IFN-α,,,,,,,,1.46 LogPFU/ml
CC[C@H](C)[C@H](NC(=O)[C@H](CCC(=O)O)NC(=O)CNC(=O)[C@@H](NC(=O)[C@H](CC(C)C)NC(=O)[C@H](CC(N)=O)NC(=O)[C@H](CC(C)C)NC(=O)[C@H](Cc1ccc(O)cc1)NC(=O)[C@@H](NC(=O)[C@H](C)NC(=O)[C@H](CC(N)=O)NC(=O)[C@@H](N)Cc1ccccc1)[C@@H](C)O)[C@@H](C)O)C(=O)N[C@@H](CC(=O)O)C(=O)N[C@@H](CC(=O)O)C(=O)N[C@@H](CC(C)C)C(=O)N[C@@H](CCC(=O)O)C(=O)N[C@@H](Cc1ccccc1)C(=O)N[C@@H](CCCNC(=N)N)C(=O)N[C@@H](CO)C(=O)N[C@@H](CCC(=O)O)C(=O)N[C@@H](CCCCN)C(=O)N[C@@H](CC(C)C)C(=O)N[C@@H](Cc1c[nH]cn1)C(=O)N[C@@H](CC(N)=O)C(=O)N[C@H](C(=O)N[C@H](C(=O)N[C@H](C(=O)N[C@@H](CCC(=O)O)C(=O)N[C@@H](CC(C)C)C(=O)O)C(C)C)[C@@H](C)O)[C@@H](C)O [FP2],,29%,≧200 μM,,,,,
